Source: patent US9907309B2 (priority 2010, dated 2018)
Like-named read-outs stand apart in the source and are kept apart here.

How the values were obtained:
Conditions in all cases: solo, growth at 405 nm 7 days after inoculation
[1] = tested on: Phytophtora infestans; type: cell-based
[2] = tested on: Septoria tritici
[3] = tested on: Alternaria solani

## COC(=O)N(OC)c1ccccc1COc1ccn(-c2ccc(Cl)cc2)n1 [Pyraclostrobin, pyraclostrobin]
[1]; 0.063 ppm
  Observed efficacy: 28%
[2]; 0.004 ppm
  Observed efficacy: 63%
[3]; 0.001 ppm
  Observed efficacy: 16%

## Cn1cc(C(=O)Nc2ccccc2-c2cc(F)c(F)c(F)c2)c(C(F)F)n1 [Fluxapyroxad, fluxapyroxad]
[2]; 0.063 ppm
  Observed efficacy: 54%

## C[C@]1(COC(=O)C2CC2)[C@@H]2C[C@H](O)[C@@]3(C)Oc4cc(-c5cccnc5)oc(=O)c4[C@H](O)[C@@H]3[C@@]2(C)CC[C@@H]1OC(=O)C1CC1 [Compound I, [(3S,4R,4aR,6S,6aS,12R,12aS,12bS)-3-(cyclopropanecarbonyloxy)-6,12-dihydroxy-4,6a,12b-trimethyl-11-oxo-9-(pyridin-3-yl)-1,2,3,4,4a,5,6,6a,12a,12b-decahydro-11H,12H-benzo[f]pyrano[4,3-b]chromen-4-yl]methyl cyclopropanecarboxylate]
[1]; 4 ppm
  Observed efficacy: 6%
[2]; 4 ppm
  Observed efficacy: 0%
[2]; 63 ppm
  Observed efficacy: 0%
[3]; 1 ppm
  Observed efficacy: 0%
